Laboratory results reported in patent US20260083864A1, “CONTRAST AGENTS FOR USE IN DIAGNOSTIC COMPUTED TOMOGRAPHY IMAGING” (Bayer Aktiengesellschaft, priority 2022, published 2026).

Columns and labels:
[1] = Biliary elimination in bile duct cannulated (BDC) rats; settings: 0.1 mmol Gd/kg bw i.v.
Experimental: All animals are initially anesthetized using a body weight-adjusted intramuscular injection of a mixture (1+2) of xylazine hydrochloride (20 mg/mL, Rompun 2%, Bayer Vital GmbH, Leverkusen) and ketamine hydrochloride (100 mg/mL, Ketavet, Pfizer, Pharmacia GmbH, Berlin) using 1 mL/kg body weight. The continuous anesthesia of the animals is achieved by the intravenous injection of 1.5 mL per hour (Braun perfusor infusion of 1+2, 1:20 saline, xylazine hydrochloride 20 mg/mL, Rompun 2%, Bayer Vital GmbH, Leverkusen and ketamine hydrochloride 100 mg/mL, Ketavet, Pfizer, Pharmacia GmbH, Berlin) via tail vein (Introcan, 24G, yellow). The animals received 0.1 mmol Gd/kg bw as intravenous bolus injection via tail vein (50 mmol Gd/L formulation). Bile was sampled 0-0.5 h, 0.5-1 h, 1-2 h, 2-3 h und 3-4 h post injection. […] The bile fractions (n=3 times 10 μL) were dried for 2 h at 90° C. and 50 μL 65% nitric acid (HNO3, Fa. Fisher, Optima Grade #1219010) and 30 μL hydrogen peroxide 30% (H2O2 Fa VWR Chemicals, AnalaR NORMAPUR, #18J024022) were added and processed in microwave oven (5 cycles: 5 min 40W, 5 min 120W, 10 min 200W, 10 min 320W and 25 min 400W, Fa. CEM, Mars5 Xpress).

[2] = reference compounds, 1.5 T, 37° C., from Rohrer et al.; cited from earlier work
[3] = reference compounds, 1.5 T, 37° C., bovine plasma instead of human plasma, from Rohrer et al.; cited from earlier work

SMILES	Biliary excretion, % of injected dose, Mean ± SD (cumulative) ([1]; bile fraction 0-0.5 h) [%]	Biliary excretion, % of injected dose, Mean ± SD (cumulative) ([1]; bile fraction 0.5-1 h) [%]	Biliary excretion, % of injected dose, Mean ± SD (cumulative) ([1]; bile fraction 1-2 h) [%]	Biliary excretion, % of injected dose, Mean ± SD (cumulative) ([1]; bile fraction 2-3 h) [%]	Biliary excretion, % of injected dose, Mean ± SD (cumulative) ([1]; bile fraction 3-4 h) [%]	r1 water [2] [L/mmol/s]	r1 plasma (r1 human plasma) [3] [L/mmol/s]
CCOc1ccc(CCOCC(C(=O)O)N2CCN(CC(=O)[O-])CCN(CC(=O)[O-])CCN(CC(=O)[O-])CC2)cc1.[Gd+3] (stereo not shown) [Example 1, gadolinium 2,2′,2″-(10-{1-carboxy-2-[2-(4-ethoxyphenyl)ethoxy]ethyl}-1,4,7,10-tetraazacyclododecane-1,4,7-triyl)triacetate]	55.5 ± 1.7	62.6 ± 0.7	65.1 ± 1.3	65.6 ± 1.6	65.8 ± 1.7		
CCOc1ccc(CC(CN(CCN(CC(=O)[O-])CC(=O)[O-])CC(=O)[O-])N(CC(=O)[O-])CC(=O)[O-])cc1.[Gd+3].[Na+].[Na+] (stereo not shown) [RC1, gadoxetate disodium, reference compound]						3.3	5.2
